For orientation: inhibition means the percentage by which the read-out fell short of the control. Lower therefore signals little suppression.

For the experiment, the system named is alpha-smooth muscle actin (α-SMA). The experiment can be described thus: Inhibition of TGF-β induced expression of alpha-smooth muscle actin (α-SMA) in CFSC cells, western blot. The note with it: compound at 10 μM, TGF-β (10 ng/mL), 24 hours, decrease in band intensity vs TGF-β only. The format is cell-based. Here is the method: The ability of a compound to inhibit the TGF-β induced expression of alpha-smooth muscle actin (α-SMA) was evaluated in CCL4-treated fat storing (CFSC) cells. α-SMA is considered as a reliable marker of hepatic stellate cell activation and a key biomarker for liver fibrosis. See, e.g., Meng et al., Nat. Rev. Nephrol. 2016, 12, 325-38; Fabregat et al., FEBS J. 2016, 283, 2219-32.
CFSC cells maintained in a DMEM medium supplemented with 10% fetal bovine serum were seeded to 12-well culture dishes and grown to a confluence of 60-70% the next day. Culture was changed to a serum-free DMEM medium and treated with a compound at 10 μM in the presence of TGF-β (10 ng/mL). The cells were incubated for another 24 hours. All culture was maintained at 37° C. in 5% carbon dioxide.
A NP-40 lysate solution (50 mM Tris (pH 7.4), 150 mM NaCl, 1% NP-40) with EDTA free cocktail added was used to lyse the cells on ice for 30 min. The lysate was collected and centrifuged at 4° C. for 10 min at 12,000 rpm. The pellet was discarded and the supernatant was transferred to a new tube. Cell lysates were loaded with 5×loading buffer and boiled for 10 min, resolved by 10% SDS-polyacrylamide gel electrophoresis (SDS-PAGE), and transferred to PVDF membrane. The membrane was blocked with 5% skim milk in Tris-buffered saline and TWEEN® 20 (TBST; 10 mM Tris-HCl (pH 8.0), 150 mM NaCl, 0.1% TWEEN® 20) for 1 h at room temperature and then incubated with α-SMA and […] antibodies overnight at 4° C. After washing twice with TBST, the membrane was probed with a horseradish […] anti-immunoglobulin (1:5000 dilution) for 1 h at room temperature. After two subsequent rinses in TBST, immunoreactive products were reacted with ECL and visualized by a UVP CHEMSTUDIO™ imaging system. The western blotting bands are quantitated using an ImageJ software. The percentage of inhibition was obtained by calculating the percentage decrease in the band intensity compared to the one treated with TGF-β only.
The results are summarized in Table 1, wherein A represents a value no less of 90% inhibition, B represents a value less than 90% but no less than 80% inhibition, C represents a value less than 80% but no less than 70% inhibition, D represents a value less than 70% but no less than 50% inhibition, and E represents a value less than 50% with a compound at 10 μM.
Background: In western blotting, separated proteins are transferred to a membrane and probed.
`CC1=C(CC(=O)O)c2cc(F)ccc2/C1=C\c1ccc(C)c2ccccc12` [Compound B35, 2-[(1Z)-5-fluoro-2-methyl-1-[(4-methylnaphthalen-1-yl)methylidene]-1H-inden-3-yl]acetic acid] registered an inhibition at 10 µM greater than 90%.
With `COc1ccc2ccccc2c1/C=C1/C(C)=C(CC(=O)O)c2cc(F)ccc21` [Compound B36, 2-[(1Z)-5-fluoro-1-[(2-methoxynaphthalen-1-yl)methylidene]-2-methyl-1H-inden-3-yl]acetic acid] the figure was greater than 90%; with `CC1=C(CC(=O)O)c2cc(F)ccc2/C1=C\c1ccc(C2CC2)cc1` [Compound B37, 2-[(1Z)-1-[(4-cyclopropylphenyl)methylidene]-5-fluoro-2-methyl-1H-inden-3-yl]acetic acid], 80 to 90%; with `C=C(C)c1ccc(/C=C2/C(C)=C(CC(=O)O)c3cc(F)ccc32)cc1` [Compound B39, 2-[(1Z)-5-fluoro-2-methyl-1-{[4-(prop-1-en-2-yl)phenyl]methylidene}-1H-inden-3-yl]acetic acid], less than 50%.
With `CC1=C(CC(=O)O)c2cc(F)ccc2/C1=C\c1ccc(C(C(F)(F)F)C(F)(F)F)cc1` [Compound B42, 2-[(1Z)-5-fluoro-1-{[4-(1,1,1,3,3,3-hexafluoropropan-2-yl)phenyl]methylidene}-2-methyl-1H-inden-3-yl]acetic acid] the figure was 80 to 90%; with `CC1=C(CC(=O)N(C)O)c2cc(F)ccc2/C1=C\c1ccc(Oc2ccccc2)cc1` [Compound C1, 2-[(1Z)-5-Fluoro-2-methyl-1-[(4-phenoxyphenyl)methylidene]-1H-inden-3-yl]-N-hydroxy-N-methylacetamide], 80 to 90%.
In turn, `CC1=C(CC(=O)N(C)O)c2cc(F)ccc2/C1=C\c1ccc(Oc2ccc(F)cc2)cc1` [Compound C2, 2-[(1Z)-5-Fluoro-1-{[4-(4-fluorophenoxy)phenyl]methylidene}-2-methyl-1H-inden-3-yl]-N-hydroxy-N-methylacetamide] showed an inhibition at 10 µM greater than 90%.
On to `CC1=C(CC(=O)N(C)O)c2cc(F)ccc2/C1=C\c1cccc(Oc2ccccc2)c1` [Compound C3, (Z)-2-(5-Fluoro-2-methyl-1-(3-phenoxybenzylidene)-1H-inden-3-yl)-N-hydroxy-N-methylacetamide], for which the inhibition at 10 µM lay in the range of 80 to 90%.
`CC1=C(CC(=O)NO)c2cc(F)ccc2/C1=C\c1ccc(Oc2ccc(C(C)C)cc2)cc1` [Compound D1, 2-[(1Z)-5-Fluoro-2-methyl-1-({4-[4-(propan-2-yl)phenoxy]phenyl}methylidene)-1H-inden-3-yl]-N-hydroxyacetamide] had an inhibition at 10 µM greater than 90%.
For `CC1=C(CC(=O)O)c2cc(F)ccc2/C1=C\c1ccc(Oc2ccc(C(C)(C)C)cc2)cc1` [Compound D2, 2-[(1Z)-5-Fluoro-2-methyl-1-({4-[4-(tert-butyl)phenoxy]phenyl}methylidene)-1H-inden-3-yl]acetic acid], the inhibition at 10 µM is greater than 90%.
In the case of `CC1=C(CC(=O)O)c2cc(F)ccc2/C1=C\c1ccc(Oc2cccc(C(C)(C)C)c2)cc1` [Compound D3, 2-[(1Z)-5-Fluoro-2-methyl-1-({4-[3-(tert-butyl)phenoxy]phenyl}methylidene)-1H-inden-3-yl]acetic acid], the inhibition at 10 µM is greater than 90%.
`CC1=C(CC(=O)O)c2cc(F)ccc2/C1=C\c1ccc(Oc2ccc(C)c(F)c2)cc1` [Compound D4, 2-[(1Z)-5-Fluoro-2-methyl-1-({4-[3-fluoro-4-methylphenoxy]phenyl}-methylidene)-1H-inden-3-yl]acetic acid] displayed an inhibition at 10 µM of less than 50%.
The result for `CC1=C(CC(=O)O)c2cc(F)ccc2/C1=C\c1ccc(Oc2ccc(F)c(F)c2)cc1` [Compound D5, 2-[(1Z)-5-Fluoro-2-methyl-1-({4-[3,4-difluorophenoxy]phenyl}methylidene)-1H-inden-3-yl]acetic acid] reads greater than 90%; that for `CC1=C(CC(=O)O)c2cc(F)ccc2/C1=C\c1ccc(Oc2cccc([N+](=O)[O-])c2)cc1` [Compound D6, 2-[(1Z)-5-Fluoro-2-methyl-1-({4-[3-nitrophenoxy]phenyl}methylidene)-1H-inden-3-yl]acetic acid], less than 50%; that for `CC1=C(CC(=O)O)c2cc(F)ccc2/C1=C\c1ccc(Oc2ccc(C(F)(F)F)cc2)cc1` [Compound D7, 2-[(1Z)-5-Fluoro-2-methyl-1-({4-[4-(trifluoromethyl)phenoxy]phenyl}-methylidene)-1H-inden-3-yl]acetic acid], greater than 90%.
Take `CC(C)CC1=C(CC(=O)O)c2cc(F)ccc2/C1=C\c1ccc(Oc2ccc(F)cc2)cc1` [Compound D8, 2-[(1Z)-5-Fluoro-1-{[4-(4-fluorophenoxy)phenyl]methylidene}-2-(2-methylpropyl)-1H-inden-3-yl]acetic acid]: the inhibition at 10 µM was greater than 90%.
Take `O=C(O)CC1=C(Cc2ccccc2)/C(=C/c2ccc(Oc3ccc(F)cc3)cc2)c2ccc(F)cc21` [Compound D9, 2-[(1Z)-5-Fluoro-2-benzyl-1-({4-[4-fluorophenoxy]phenyl}methylidene)-1H-inden-3-yl]acetic acid]: the inhibition at 10 µM is less than 50%.
Molecule `COc1ccc2c(c1)C(CC(=O)O)=C(C)/C2=C/c1ccc(Oc2ccc(F)cc2)cc1` [Compound D10, 2-[(1Z)-5-Methoxy-2-methyl-1-({4-[4-fluorophenoxy]phenyl}methylidene)-1H-inden-3-yl]acetic acid] gave an inhibition at 10 µM greater than 90%.
Consider `COc1ccc2c(c1)C(CC(=O)O)=C(C)/C2=C/c1ccc(Oc2ccccc2)cc1` [Compound D11, 2-[(1Z)-5-Methoxy-2-methyl-1-[(4-phenoxyphenyl)methylidene]-1H-inden-3-yl]acetic acid], for which the inhibition at 10 µM was greater than 90%.
With `CC1=C(CC(=O)O)c2cc(F)ccc2/C1=C\c1ccc(Oc2ccc(F)cc2)cc1C(F)(F)F` [Compound D12, 2-[(1Z)-1-{[2-Trifluoromethyl-4-(4-fluorophenoxy)phenyl]methylidene}-5-fluoro-2-methyl-1H-inden-3-yl]acetic acid] the figure was less than 50%.
For the molecule `CC1=C(CC(=O)O)c2cc(F)ccc2/C1=C\c1ccc(Oc2ccc(F)cc2)c(C)c1` [Compound D13, 2-[(1Z)-1-{[3-Methyl-4-(4-fluorophenoxy)phenyl]methylidene}-5-fluoro-2-methyl-1H-inden-3-yl]acetic acid], the inhibition at 10 µM was less than 50%.
With `CC1=C(CC(=O)O)c2cc(F)ccc2/C1=C\c1ccc(Oc2ccc(F)cc2)cc1C` [Compound D14, 2-[(1Z)-1-{[2-Methyl-4-(4-fluorophenoxy)phenyl]methylidene}-5-fluoro-2-methyl-1H-inden-3-yl]acetic acid] the figure was greater than 90%; with `CC1=C(CC(=O)O)c2cc(F)cc(F)c2/C1=C\c1ccc(Oc2ccc(F)cc2)cc1` [Compound D15, 2-[(1Z)-5,7-Difluoro-2-methyl-1-({4-[4-fluorophenoxy]phenyl}methylidene)-1H-inden-3-yl]acetic acid], greater than 90%; with `CC1=C(CC(=O)O)c2c(F)cc(F)cc2/C1=C\c1ccc(Oc2ccc(F)cc2)cc1` [Compound D16, 2-[(1Z)-4,6-Difluoro-2-methyl-1-({4-[4-fluorophenoxy]phenyl}methylidene)-1H-inden-3-yl]acetic acid], less than 50%.
With `CC1=C(CC(=O)O)c2cc(F)ccc2/C1=C\c1cccc(Oc2ccccc2)c1` [Compound D18, (Z)-2-(5-Fluoro-2-methyl-1-(3-phenoxybenzylidene)-1H-inden-3-yl)acetic acid] the figure was greater than 90%; with `CC1=C(CC(=O)O)c2cc(F)ccc2/C1=C\c1ccccc1Oc1ccccc1` [Compound D19, 2-[(1Z)-5-Fluoro-1-(2-(phenoxy)benzylidene)-2-methyl-1H-inden-3-yl]-acetic acid], less than 50%; with `CC1=C(CC(=O)O)c2cc(F)cc(F)c2/C1=C\c1cccc(Oc2ccccc2)c1` [Compound D20, 2-[(1Z)-5,7-Difluoro-1-(3-(phenoxy)benzylidene)-2-methyl-1H-inden-3-yl]-acetic acid], greater than 90%.
`CC1=C(CC(=O)O)c2c(F)cc(F)cc2/C1=C\c1cccc(Oc2ccccc2)c1` [Compound D21, 2-[(1Z)-4,6-Difluoro-1-(3-(phenoxy)benzylidene)-2-methyl-1H-inden-3-yl]-acetic acid] came in with an inhibition at 10 µM greater than 90%.

Source of the values: patent publication US12649712B2, “Indene compounds, pharmaceutical compositions thereof, and their therapeutic applications” (NucMito Pharmaceuticals Co. Ltd., priority 2020, dated 2026).
